Laboratory results as given in patent US7604990B2, “Methods of regulating differentiation in stem cells” (ES Cell International Pte Ltd., priority 2002, dated 2009).

What was measured:
hES cells = assay: GCTM-2 quantification by alkaline phosphatase activity, hES cells on MEF, serum-free (Example 1); assay type: cell-based, human; conditions: 8 days serum-free on MEF; S1P 10 μM, PDGF 20 ng/ml; n=7
Experimental: (A) hES cells grown with MEF, before the depletion of serum from the medium. (B, C, D, E) hES cells grown without serum after 8 days, in the absence (B) or in the presence of S1P (10 μM) (C), PDGF (20 ng/ml) (D), S1P (10 μM) plus PDGF (20 ng/ml) (E). (F) hES cells grown without serum, in the presence or in the absence (control) of S1P (10 μM), PDGF (20 ng/ml), S1P (10 μM) plus PDGF (20 ng/ml). In A-E, data are representative of at least 3 independent experiments. In F, data expressed as percentages of alkaline phosphatase activity in absence of serum for eight days (% of control), are the means±SEM of at least 2 independent experiments, each run in triplicate.
hES-3 cells plated with MEF, were fixed in ethanol and immunostained with GCTM-2 and then with an alkaline phosphatase-coupled secondary antibody (Dako). The activity of alkaline phosphatase was detected by adding a solution of 4-nitrophenyl phosphate (Roche, Mannheim, Germany), followed by reading the optical density (OD) at 405 nm. In order to validate the technique as a relevant indicator of the proportion of GCTM-2 positive cells, standard curves were done with the teratocarcinoma cell line GCT27C4, known to express GCTM-2.

SPK in MEF = assay: Sphingosine kinase activity in MEF after PDGF; assay type: cell-based, mouse; conditions: PDGF 20 ng/ml

Substance: PDGF
- more GCTM2+ than the control cells (alkaline phosphatase activity) (hES cells): 16.6±7.0%
- activation of SPK in MEF (SPK in MEF): did not induce a significant statistical activation of SPK
